Results as given in ChEMBL document CHEMBL5576091, “2'-β-Methylselenyl nucleos(t)ide analogs as reverse transcriptase inhibitors against diverse HIV mutants” (Bioorg Med Chem, 2024).
Active and inactive are the calls of the source. The rule behind the calls is not given here.

Experiments:
[1] = tested on: Human immunodeficiency virus 1; experiment: Antiviral activity against wild type HIV-1 infected in human TZM-bl cells incubated for 48 hrs by steady glo reagent based […] luminometer analysis; assay type: functional, organism-based; conditions: Human immunodeficiency virus 1, TZM-bl
[2] = tested on: Human immunodeficiency virus 1; experiment: Antiviral activity against lamivudine resistant HIV-1 harboring RT M184V mutant infected in human TZM-bl cells incubated for 48 hrs by steady glo reagent based […] luminometer analysis; assay type: functional, organism-based; conditions: Human immunodeficiency virus 1, TZM-bl
[3] = tested on: Human immunodeficiency virus 1; experiment: Antiviral activity against azidothymidine resistant HIV-1 harboring RT M41L/T215Y mutant infected in human TZM-bl cells incubated for 48 hrs by steady glo reagent based […] luminometer analysis; assay type: functional, organism-based; conditions: Human immunodeficiency virus 1, TZM-bl
[4] = tested on: Human immunodeficiency virus 1; experiment: Antiviral activity against multidrug resistant HIV-1 harboring RT M41L/T69SSG/T215Y mutant infected in human TZM-bl cells incubated for 48 hrs by steady glo reagent based […] luminometer analysis; assay type: functional, organism-based; conditions: Human immunodeficiency virus 1, TZM-bl
[5] = Cytotoxicity against human TZM-bl cells assessed as reduction in cell viability incubated for 48 hrs by MTT assay; assay type: toxicity, cell-based
[6] = Cytotoxicity against human MT4 cells assessed as reduction in cell viability incubated for 5 days by MTT assay; assay type: toxicity, cell-based; conditions: time 5 day
[7] = molecular target: Human immunodeficiency virus type 1 reverse transcriptase (Human immunodeficiency virus 1) (UniProt Q72547); experiment: Substrate activity at HIV-1 reverse transcriptase assessed as formation of single elongation product at 50 to 400 uM incubated for 60 mins in presence of 14.4 ng/uL enzyme, FAM labeled primer DNA, template RNA, dNTPs by fluorescence based primer extension assay; conditions: dose 50-400 µM
Homo sapiens [8] = organism: Homo sapiens; experiment: Substrate activity at Taq DNA polymerase (unknown origin) assessed as incorporation into DNA incubated for 60 mins in presence of FAM labeled primer DNA, template DNA, dNTPs by fluorescence based primer extension assay
Homo sapiens [9] = organism: Homo sapiens; experiment: Substrate activity at Phi29 DNA polymerase (unknown origin) assessed as incorporation into DNA incubated for 60 mins in presence of FAM labeled primer DNA, template DNA, dNTPs by fluorescence based primer extension assay
[10] = tested on: Avian myeloblastosis virus; experiment: Substrate activity at Avian myeloblastosis virus reverse transcriptase assessed as incorporation into DNA incubated for 60 mins in presence of FAM labeled primer DNA, template DNA, dNTPs by fluorescence based primer extension assay
[11] = molecular target: Human immunodeficiency virus type 1 reverse transcriptase (Human immunodeficiency virus 1) (UniProt Q72547); experiment: (§1) Substrate activity at HIV-1 reverse transcriptase assessed as formation of single elongation product at 100 uM incubated for 60 mins in presence of FAM labeled 13-mer primer DNA, 20-mer template RNA, dNTPs by fluorescence based primer extension assay
[12] = molecular target: Human immunodeficiency virus type 1 reverse transcriptase (Human immunodeficiency virus 1) (UniProt Q72547); experiment: as §1, with “product by measuring elongation efficiency” for “product”, “assay relative to control” for “assay”
[13] = molecular target: Human immunodeficiency virus type 1 reverse transcriptase (Human immunodeficiency virus 1) (UniProt Q72547); experiment: Substrate activity at HIV-1 reverse transcriptase assessed as formation of single elongation product at 400 uM in presence of 3.6 ng/uL enzyme, FAM labeled 13-mer primer DNA, 20-mer template RNA, dNTPs by fluorescence based primer extension assay; conditions: time 0-60 min, TDE = time-dependent effect
[14] = molecular target: Human immunodeficiency virus type 1 reverse transcriptase (Human immunodeficiency virus 1) (UniProt Q72547); experiment: (§2) Substrate activity at HIV-1 reverse transcriptase assessed as formation of single elongation product by measuring elongation efficiency at 400 uM incubated for 60 mins in presence of 3.6 ng/uL enzyme, FAM labeled 13-mer primer DNA, 20-mer template RNA, dNTPs by fluorescence based primer extension assay relative to control
[15] = molecular target: Human immunodeficiency virus type 1 reverse transcriptase (Human immunodeficiency virus 1) (UniProt Q72547); experiment: as §2, with “5” for “60”, “14.4” for “3.6”
[16] = molecular target: Human immunodeficiency virus type 1 reverse transcriptase (Human immunodeficiency virus 1) (UniProt Q72547); experiment: as §2, with “14.4” for “3.6”
[17] = molecular target: Human immunodeficiency virus type 1 reverse transcriptase (Human immunodeficiency virus 1) (UniProt Q72547); experiment: Substrate activity at HIV-1 reverse transcriptase assessed as formation of multiple elongation products at 50 to 400 uM incubated for 60 mins in presence of 14.4 ng/uL enzyme, FAM labeled primer DNA, template RNA, dNTPs by fluorescence based primer extension assay; conditions: dose 50-400 µM
[18] = molecular target: Human immunodeficiency virus type 1 reverse transcriptase (Human immunodeficiency virus 1) (UniProt Q72547); experiment: Substrate activity at HIV-1 reverse transcriptase assessed as 14-mer product formation incubated for 60 mins in presence of 14.4 ng/uL enzyme, FAM labeled primer DNA, template RNA, dNTPs by fluorescence based primer extension assay; conditions: dose 50-400 µM
[19] = molecular target: Human immunodeficiency virus type 1 reverse transcriptase (Human immunodeficiency virus 1) (UniProt Q72547); experiment: Substrate activity at HIV-1 reverse transcriptase assessed as 15-mer product formation incubated for 60 mins in presence of 14.4 ng/uL enzyme, FAM labeled primer DNA, template RNA, dNTPs by fluorescence based primer extension assay; conditions: dose 50-400 µM
[20] = molecular target: Human immunodeficiency virus type 1 reverse transcriptase (Human immunodeficiency virus 1) (UniProt Q72547); experiment: Substrate activity at HIV-1 reverse transcriptase assessed as mismatch elongation mediated 19-mer product formation at 50 to 400 uM incubated for 60 mins in presence of 14.4 ng/uL enzyme, FAM labeled primer DNA, template RNA, dNTPs by fluorescence based primer extension assay; conditions: dose 50-400 µM
[21] = molecular target: Human immunodeficiency virus type 1 reverse transcriptase (Human immunodeficiency virus 1) (UniProt Q72547); experiment: Substrate activity at HIV-1 reverse transcriptase assessed as mismatch elongation mediated 20-mer product formation at 50 to 400 uM incubated for 60 mins in presence of 14.4 ng/uL enzyme, FAM labeled primer DNA, template RNA, dNTPs by fluorescence based primer extension assay; conditions: dose 50-400 µM
[22] = molecular target: Human immunodeficiency virus type 1 reverse transcriptase (Human immunodeficiency virus 1) (UniProt Q72547); experiment: Substrate activity at HIV-1 reverse transcriptase assessed as increase in multiple base elongation product at 100 uM in presence of FAM labeled 13-mer primer DNA, 20-mer template RNA, dNTPs by fluorescence based primer extension assay; conditions: time 0-60 min, TDE = time-dependent effect

Compound	EC50 [1] [µM]	EC50 [2] [µM]	EC50 [3] [µM]	EC50 [4] [µM]	CC50 at 48 h [5] [µM]	CC50 at 120 h [6] [µM]	also measured
COc1nc(N)nc2c1ncn2[C@@H]1O[C@H](CO)[C@@H](O)[C@@H]1[Se]C	> 20	> 20	> 20	> 20	> 100	> 100	–
C[Se][C@H]1[C@H](O)[C@@H](CO[P@@](=O)(N[C@@H](C)C(=O)OC(C)C)Oc2ccccc2)O[C@H]1n1cnc2c(N)nc(F)nc21	> 20	–	–	–	80	> 100	–
Nc1ncnc2c1ncn2[C@H]1CC[C@@H](COP(=O)(O)OP(=O)(O)OP(=O)(O)O)O1	–	–	–	–	–	–	Activity [7]: Active
C[Se][C@H]1[C@H](O)[C@@H](COP(=O)(O)OP(=O)(O)OP(=O)(O)O)O[C@H]1n1cnc2c(N)ncnc21	–	–	–	–	–	–	Activity (Homo sapiens [8]): inactive; Activity (Homo sapiens [9]): inactive; Activity [10]: Active; Activity [11]: Active; Activity [12]: 80%; Activity [13]: Tde; Activity [14]: 77%; Activity [15]: 70%; Activity [16]: 94%; Activity [7]: Active; Activity [17]: Active; Activity [18]: Dose-Dependent Effect; Activity [19]: Dose-Dependent Effect; Activity [20]: Active; Activity [21]: Active
COc1nc(N)nc2c1ncn2[C@@H]1O[C@H](COP(=O)(N[C@@H](C)C(=O)OC(C)C)Oc2ccccc2)[C@@H](O)[C@@H]1[Se]C (stereo not given in full)	54	46	45	61	> 100	> 100	–
C[Se][C@H]1[C@H](O)[C@@H](CO)O[C@H]1n1cc(C)c(=O)[nH]c1=O	–	–	–	–	0.25	0.72	–
C[Se][C@H]1[C@H](O)[C@@H](COP(=O)(N[C@@H](C)C(=O)OC(C)C)Oc2ccccc2)O[C@H]1n1cnc2c(N)nc(N)nc21 (stereo not given in full)	> 0.8	–	–	–	2.8	5.5	–
O=c1[nH]cnc2c1ncn2[C@H]1CC[C@@H](CO)O1 [DIDANOSINE]	4.2	7.1	4.6	25	> 100	> 100	–
C[Se][C@H]1[C@H](O)[C@@H](COP(=O)(N[C@@H](C)C(=O)OC(C)C)Oc2ccccc2)O[C@H]1n1cnc2c(=O)[nH]c(N)nc21 (stereo not given in full)	> 20	–	–	–	63	51	–
C[Se][C@H]1[C@H](O)[C@@H](CO[P@@](=O)(N[C@@H](C)C(=O)OC(C)C)Oc2ccccc2)O[C@H]1n1cnc2c(N)ncnc21	2.2	5.7	5.8	2.8	> 100	> 100	–
CCCC(CC)OC(=O)[C@H](C)N[P@](=O)(OC[C@H]1O[C@@H](n2cnc3c(N)ncnc32)[C@@H]([Se]C)[C@@H]1O)Oc1ccccc1 (stereo not given in full)	2.6	4.4	5.5	–	> 100	> 100	–
Nc1ncnc2c1ncn2[C@H]1C[C@H](O)[C@@H](COP(=O)(O)OP(=O)(O)OP(=O)(O)O)O1	–	–	–	–	–	–	Activity [22]: Tde
C[Se][C@H]1[C@H](O)[C@@H](CO)O[C@H]1n1cnc2c(=O)[nH]c(N)nc21	> 100	> 100	> 100	> 100	> 100	> 100	–
C[Se][C@H]1[C@H](O)[C@@H](CO)O[C@H]1n1cnc2c(N)nc(F)nc21	> 20	> 20	> 20	> 20	29	12	–
Nc1ccn([C@@H]2CS[C@H](CO)O2)c(=O)n1 [LAMIVUDINE]	0.52	> 100	0.85	9.8	> 100	> 100	–
C[Se][C@H]1[C@H](O)[C@@H](CO)O[C@H]1n1ccc(=O)[nH]c1=O	–	–	–	–	0.005	0.006	–
C[Se][C@H]1[C@H](O)[C@@H](CO)O[C@H]1n1cnc2c(N)nc(N)nc21	> 100	> 100	> 100	> 100	> 100	> 100	–
C[Se][C@H]1[C@H](O)[C@@H](COP(=O)(N[C@@H](C)C(=O)OC(C)C)Oc2ccccc2)O[C@H]1n1ccc(=O)[nH]c1=O (stereo not given in full)	–	–	–	–	0.004	0.007	–
C[Se][C@H]1[C@H](O)[C@@H](CO)O[C@H]1n1cnc2c(N)ncnc21	> 100	> 100	> 100	> 100	> 100	> 100	–
C[Se][C@H]1[C@H](O)[C@@H](COP(=O)(N[C@@H](C)C(=O)OC(C)C)Oc2ccccc2)O[C@H]1n1cc(C)c(=O)[nH]c1=O (stereo not given in full)	–	–	–	–	0.006	0.007	–
Cc1cn([C@H]2C[C@H](N=[N+]=[N-])[C@@H](CO)O2)c(=O)[nH]c1=O [ZIDOVUDINE]	0.03	0.022	0.09	13	> 100	51	–
C[Se][C@H]1[C@H](O)[C@@H](COP(=O)(N[C@@H](C)C(=O)OC(C)C)Oc2ccccc2)O[C@H]1n1cnc2c(N)ncnc21 (stereo not given in full)	3.7	6.8	7	3.8	> 100	> 100	–
